Assay results taken from patent US20090181931A1, “ANTIVIRAL ACTIVITY OF CIDOFOVIR AGAINST ONCOLYTIC VIRUSES” (priority 2008, published 2009).
Several values for one entry are separate records, joined by “and”; a condition that tells them apart may be missing. Identical values can stand only once.

How the values were obtained:
[1] = XTT cell viability assay, CDV alone, A549 cells; format: cell-based; settings: human; A549 cells, XTT; read-out: CC50, CDV concentration that reduce the relative cell viability to 50%
Method: (§1) Cells frozen in liquid nitrogen were thawed in water bath at 37° C., seeded at T25 flask, and cultured at 70-90% sub-confluent monolayer. Cells were detached with trypsin, and prepared suspension at a concentration of 1.0×10^4 cells/ml.
(§2) Cells were seeded in 96 well-plate (100 μL/well, 1000 cells/well), then cultured with 5% CO2 at 37° C.
(§3) Viruses were diluted at MOI of 1 (OBP-301, OBP-202) in H1299 and 5 in A549 (PFU/cell). Medium in each well was removed, 150 μL of diluted virus solution was added to each well of the plate. 2 hours later, medium was aspirated and replaced with fresh medium containing 2% FCS and serially diluted CDV. Cells were incubated with 5% CO2 at 37° C. for 7 days after infection.
(§4) 100 μL of PBS, 50 μL of XTT labeling reagent, and 1 μL of ion coupling reagent per well of plate were mixed.
(§5) Medium in each well of plate was removed, and 150 μL of mixture prepared above was added to each well. Plate was incubated with 5% CO2 at 37° C. for 4 hours, and then calculated absorbance at 450 nm and 690 nm. Protection was determined by the formula below: […]

[2] = system: A549 cells; assay: XTT cell viability assay, CDV alone, A549 cells; format: cell-based; settings: for Relative cell viability Ave. / Relative cell viability: A549, no virus, 7 days; for Relative cell viability: single wells, dihydrate
Method: as §1, §2, §3, §4, §5

[3] = system: Telomelysin (OBP-301); assay: Real-time quantitative PCR, viral E1A copy number, Telomelysin in H1299 cells; format: cell-based, adenovirus; settings: for E1A copy number, % (relative to 0 μM) / E1A copy number/ng DNA: Telomelysin MOI 10, H1299, 24 hours
Method: (§6) Cells were seeded in 6-well plate (2 mL/well, 2×10^5 cells/well), and incubated with 5% CO2 at 37° C.
(§7) Viruses were diluted at a MOI of 10. Medium in each well was removed, 500 μL of diluted virus solution was added to each well of the plate. Plates were incubated with 5% CO2 at 37° C. for 2 hours with gently shaking every 15 minutes. Medium was aspirated, washed with PBS twice, and replaced with fresh medium containing 2% FCS and serially diluted CDV. Cells were incubated with 5% CO2 at 37° C. for 24 hours after infection.
(§8) Cells were detached with Trypsin-EDTA, and collected by centrifuging. Total DNA was extracted using QIAamp™ DNA Mini Kit according to manufacture's instructions with some modifications: addition of 20 μL of RNaseA in each sample when adding ProK. DNA was eluted by 50˜100 μL of D. W.
(§9) Concentration of DNA was determined by measuring O.D.260. Each DNA samples was diluted by D. W. at a concentration of 5 ng/μL.
(§10) Master-mix for E1A primer was prepared using LightCycler™ Faststart DNAMaster SYBR Green™ according to Table 1. Standard DNA was prepared by serially 10 times dilution of pCRII-E1A plasmid (1×10^9, 1×10^8, 1×10^7, 1×10^6, 1×10^5, 1×10^4, and 1×10^3 copies/μL). 2 μL of Sample or Standard DNA was and 18 μL of Master mix were added into capillaries (total volume was 20 μL per capillary).
(§11) Q-PCR was performed according to the program of Table 2 (LightCycler quicksystem 350S). Results obtained here were analyzed using LightCycler softwere.

[4] = system: Wild-type adenovirus (OBP-202); assay: Real-time quantitative PCR, viral E1A copy number, wild-type adenovirus in H1299 cells; format: cell-based; settings: for E1A copy number, % (relative to 0 μM) / E1A copy number/ng DNA: Wt-Ad MOI 10, H1299, 24 hours
Method: as §6, §7, §8, §9, §10, §11

[5] = system: TelomeScan (OBP-401); assay: XTT assay, protection from cytopathic effect of TelomeScan (OBP-401) in H1299 cells; format: cell-based, adenovirus; settings: for Protection (%) Ave. / Protection (%): OBP-401 MOI 0.1, H1299, 7 days; for Protection (%): single wells, dihydrate
Method: as §1, §2
as §3, with “0.1 (OBP-401) or 10 (ONYX-015)” for “1 (OBP-301, OBP-202)”, “H1299.” for “H1299 and 5 in A549 (PFU/cell).”, “50” for “150”
as §4
Medium in each well of plate was removed, and 150 μL of mixture prepared above was added to each well. Plate was incubated with 5% CO2 at 37° C. for 4 hours, and then calculated absorbance at 450 nm and 690 nm. Protection was determined by the formula below:
Protection(%)={OD(AdV(+):CDV(+))−OD(AdV(+):CDV(−))}/{OD(AdV(−):CDV(+))−OD(AdV(+):CDV(−))}×100.

[6] = system: TelomeScan (OBP-401); assay: Real-time quantitative PCR, viral E1A copy number, TelomeScan in H1299 cells; format: cell-based, adenovirus; settings: for E1A copy number, % (relative to 0 uM) / E1A copy number/ng DNA: TelomeScan MOI 10, H1299, 24 hours
Method: as §6, §7, §8, §9, §10, §11

Structure (SMILES): Nc1ccn(C[C@@H](CO)OCP(=O)(O)O)c(=O)n1.O.O [CDV, 1-[(S)-3-hydroxy-2-(phosphonomethoxy)propyl]cytosine dihydrate]
- CC50 at 7 days [1]: 107 µM
- toxicity of CDV itself ([2]; A549 cells, high concentrations): toxic
- Relative cell viability Ave. ([2]; CDV 10 μM): 0.969
- Relative cell viability ([2]; CDV 10 μM): 0.993 and 0.938 and 0.962 and 0.982
- Relative cell viability Ave. ([2]; CDV 20 μM): 0.935
- Relative cell viability ([2]; CDV 20 μM): 0.982 and 0.877 and 0.924 and 0.958
- Relative cell viability Ave. ([2]; CDV 30 μM): 0.912
- Relative cell viability ([2]; CDV 30 μM): 0.944 and 0.883 and 0.881 and 0.939
- Relative cell viability Ave. ([2]; CDV 40 μM): 0.908
- Relative cell viability ([2]; CDV 40 μM): 0.951 and 0.860 and 0.910 and 0.911
- Relative cell viability Ave. ([2]; CDV 50 μM): 0.852
- Relative cell viability ([2]; CDV 50 μM): 0.819 and 0.842 and 0.862 and 0.884
- Relative cell viability Ave. ([2]; CDV 60 μM): 0.798
- Relative cell viability ([2]; CDV 60 μM): 0.755 and 0.792 and 0.809 and 0.837
- Relative cell viability Ave. ([2]; CDV 70 μM): 0.720
- Relative cell viability ([2]; CDV 70 μM): 0.709 and 0.703 and 0.747 and 0.719
- Relative cell viability Ave. ([2]; CDV 80 μM): 0.696
- Relative cell viability ([2]; CDV 80 μM): 0.656 and 0.707 and 0.737 and 0.683
- Relative cell viability Ave. ([2]; CDV 90 μM): 0.544
- Relative cell viability ([2]; CDV 90 μM): 0.502 and 0.552 and 0.606 and 0.518
- Relative cell viability Ave. ([2]; CDV 100 μM): 0.471
- Relative cell viability ([2]; CDV 100 μM): 0.511 and 0.451 and 0.482 and 0.438
- E1A copy number, % (relative to 0 μM) ([3]; CDV 0.16 μM): 97.60%
- E1A copy number/ng DNA ([3]; CDV 0.16 μM): 1.461E+08 copy number/ng DNA
- E1A copy number, % (relative to 0 μM) ([3]; CDV 0.8 μM): 98.93%
- E1A copy number/ng DNA ([3]; CDV 0.8 μM): 1.481E+08 copy number/ng DNA
- E1A copy number, % (relative to 0 μM) ([3]; CDV 4 μM): 91.32%
- E1A copy number/ng DNA ([3]; CDV 4 μM): 1.367E+08 copy number/ng DNA
- E1A copy number, % (relative to 0 μM) ([3]; CDV 20 μM): 47.07%
- E1A copy number/ng DNA ([3]; CDV 20 μM): 7.046E+07 copy number/ng DNA
- E1A copy number, % (relative to 0 μM) ([3]; CDV 100 μM): 9.99%
- E1A copy number/ng DNA ([3]; CDV 100 μM): 1.496E+07 copy number/ng DNA
- EC50 ([3]; NCI-H1299, H1299 cells, real-time quantitative PCR, read-out: EC50 (E1A), CDV concentration that reduces the relative E1A copy number of Telomelysin to 50%): 19.6 µM
- Viral E1A copy number ([3]; Telomelysin, H1299 cells, dose-dependent manner): reduced
- E1A copy number, % (relative to 0 μM) ([4]; CDV 0.16 μM): 117.49%
- E1A copy number/ng DNA ([4]; CDV 0.16 μM): 6.152E+07 copy number/ng DNA
- E1A copy number, % (relative to 0 μM) ([4]; CDV 0.8 μM): 95.65%
- E1A copy number/ng DNA ([4]; CDV 0.8 μM): 5.008E+07 copy number/ng DNA
- E1A copy number, % (relative to 0 μM) ([4]; CDV 4 μM): 74.69%
- E1A copy number/ng DNA ([4]; CDV 4 μM): 3.911E+07 copy number/ng DNA
- E1A copy number, % (relative to 0 μM) ([4]; CDV 20 μM): 32.83%
- E1A copy number/ng DNA ([4]; CDV 20 μM): 1.719E+07 copy number/ng DNA
- E1A copy number, % (relative to 0 μM) ([4]; CDV 100 μM): 4.79%
- E1A copy number/ng DNA ([4]; CDV 100 μM): 2.509E+06 copy number/ng DNA
- Viral E1A copy number ([4]; wild-type AdV, H1299 cells, dose-dependent manner): reduced
- Protection (%) Ave. ([5]; CDV 0.01 μM): −0.229%
- Protection (%) ([5]; CDV 0.01 μM): −1.063% and 0.309% and −0.240% and 0.080%
- Protection (%) Ave. ([5]; CDV 0.06 μM): 0.057%
- Protection (%) ([5]; CDV 0.06 μM): −0.423% and −0.514% and 1.589%
- Protection (%) Ave. ([5]; CDV 0.32 μM): 0.171%
- Protection (%) ([5]; CDV 0.32 μM): 0.400% and 0.674% and −0.789%
- Protection (%) Ave. ([5]; CDV 1.6 μM): 1.931%
- Protection (%) ([5]; CDV 1.6 μM): 3.006% and −0.057% and 2.594% and 2.183%
- Protection (%) Ave. ([5]; CDV 8 μM): 0.469%
- Protection (%) ([5]; CDV 8 μM): 3.280% and 0.263% and −0.743% and −0.926%
- Protection (%) Ave. ([5]; CDV 40 μM): 40.926%
- Protection (%) Ave. ([5]; CDV 200 μM): 15.154%
- Protection (%) Ave. ([5]; CDV 1000 μM): 1.463%
- Protection (%) ([5]; CDV 1000 μM): 0.446% and 0.537% and 3.554% and 1.314%
- cytopathic effect induced by TelomeScan ([5]; H1299 cells, FIG. 2A): apparently inhibited
- E1A copy number, % (relative to 0 uM) ([6]; CDV 0.16 uM): 103.48%
- E1A copy number/ng DNA ([6]; CDV 0.16 uM): 2.350E+08 copy number/ng DNA
- E1A copy number, % (relative to 0 uM) ([6]; CDV 0.8 uM): 83.22%
- E1A copy number/ng DNA ([6]; CDV 0.8 uM): 1.890E+08 copy number/ng DNA
- E1A copy number, % (relative to 0 uM) ([6]; CDV 4 uM): 100.62%
- E1A copy number/ng DNA ([6]; CDV 4 uM): 2.285E+08 copy number/ng DNA
- E1A copy number, % (relative to 0 uM) ([6]; CDV 20 uM): 70.19%
- E1A copy number/ng DNA ([6]; CDV 20 uM): 1.594E+08 copy number/ng DNA
- E1A copy number, % (relative to 0 uM) ([6]; CDV 100 uM): 21.83%
- E1A copy number/ng DNA ([6]; CDV 100 uM): 4.957E+07 copy number/ng DNA
- Viral E1A copy number ([6]; TelomeScan, H1299 cells, dose-dependent manner): reduced
